The values that follow come from ChEMBL document CHEMBL2331213, “A flexible approach to 1,4-di-substituted 2-aminoimidazoles that inhibit and disperse biofilms and potentiate the effects of β-lactams against multi-drug resistant bacteria” (Eur J Med Chem, 2013).

The subject of test [1] is Staphylococcus aureus. Nature of the test: Antibacterial activity against methicillin-resistant Staphylococcus aureus ATCC BAA-44 assessed as reduction of oxacillin MIC at 25% MIC by broth microdilution method relative to oxacillin-treated control. The class given is functional.
Test [2] deals with Staphylococcus aureus. Nature of the test: Antibacterial activity against methicillin-resistant Staphylococcus aureus ATCC BAA-44 assessed as dispersion of preformed biofilm after 24 hrs by crystal violet reporter assay. The class given is functional, organism-based. The following applies: ATCC BAA-44, 24 h. A general note: In a reporter assay the amount or activity of a reporter protein is the signal.

Test [3] concerns Acinetobacter baumannii. The experiment in a line: Antibacterial activity against multidrug-resistant Acinetobacter baumannii ATCC BAA-1605 assessed as inhibition of biofilm growth after 24 hrs by crystal violet reporter assay. It is filed as functional, organism-based.
Test [4] concerns Staphylococcus aureus. The experiment in a line: Antibacterial activity against methicillin-resistant Staphylococcus aureus ATCC BAA-44 assessed as inhibition of biofilm growth after 24 hrs by crystal violet reporter assay. It is filed as functional, organism-based. The note with it: ATCC BAA-44, 24 h.
Test [5] concerns Acinetobacter baumannii. The experiment in a line: Antibacterial activity against multidrug-resistant Acinetobacter baumannii ATCC BAA-1605 assessed as growth inhibition by broth microdilution method. The class given is functional.
Test [6] relates to Staphylococcus aureus. The experiment in a line: Antibacterial activity against methicillin-resistant Staphylococcus aureus ATCC BAA-44 assessed as growth inhibition by broth microdilution method. The class given is functional. For orientation: Broth dilution looks for growth in wells or tubes with falling amounts of substance.
[7] abbreviates: Acinetobacter baumannii, ATCC BAA-1605, 24 h, read-out: IC50.

SMILES strings stand for the structures. A value given as a limit tells only on which side of the number the result lay.

Regarding `CCCCCc1ccc(C(=O)NCCn2cc(CCCCCc3c[nH]c(N)n3)nn2)cc1.Cl`, the “fold change (FC)” value with Staphylococcus aureus [1] turned out to be 4.

Consider `CCCCCc1ccc(C(=O)NCCn2cc(CCCCCc3cn(CCc4ccccc4)c(N)n3)nn2)cc1.Cl`, for which the “fold change (FC)” value in the test on Staphylococcus aureus [1] is on record as 0. Besides, the concentration giving a half-maximal response (EC50) in the test on Staphylococcus aureus [2] was found to be 33 µM. Besides, the results for the IC50 with Acinetobacter baumannii [3] (setting [7]) and in the test on Staphylococcus aureus [4] were 39.2 µM and 9.9 µM, respectively. Moreover, the MIC in the test with Acinetobacter baumannii [5] worked out at 100 µM; with Staphylococcus aureus [6], 25 µM.

With `CCCCCc1ccc(C(=O)NCCn2cc(CCCCCc3cn(Cc4ccccc4)c(N)n3)nn2)cc1.Cl`, the “fold change (FC)” value in the test with Staphylococcus aureus [1] is recorded as 0. Besides, in the test on Staphylococcus aureus [2], the concentration for a half-maximal effect (EC50) stood at 39.6 µM. In addition, the results for the half-inhibitory concentration (IC50) in the test with Acinetobacter baumannii [3] (setting [7]) and in the test on Staphylococcus aureus [4] were 33.9 µM and 7.16 µM, respectively. Also, the values for the minimal inhibitory concentration (MIC) in the test with Acinetobacter baumannii [5] and in the test on Staphylococcus aureus [6] were 100 µM and 12.5 µM, respectively.

On to `CCCCCc1ccc(C(=O)NCCn2cc(CCCCCc3cn(-c4ccccc4)c(N)n3)nn2)cc1.Cl`, for which the “fold change (FC)” value in the test on Staphylococcus aureus [1] is 0. Besides, the half-maximal inhibitory concentration (IC50) in the test on Acinetobacter baumannii [3] (setting [7]) was 49.8 µM; in the test with Staphylococcus aureus [4], 25.1 µM. In addition, the minimum inhibitory concentration (MIC) in the test on Acinetobacter baumannii [5] is more than 200 µM; in the test with Staphylococcus aureus [6], 25 µM.

For `CCCCCCn1cc(CCCCCc2cn(CCNC(=O)c3ccc(CCCCC)cc3)nn2)nc1N.Cl`, the “fold change (FC)” value in the test with Staphylococcus aureus [1] was 0. For the same compound, in the test on Staphylococcus aureus [2], the half-maximal effective concentration (EC50) worked out at 41 µM. The figures for the half-inhibitory concentration (IC50) in the test on Acinetobacter baumannii [3] (setting [7]) and in the test with Staphylococcus aureus [4] were 26.2 µM and 6.2 µM, respectively. Further, the MIC worked out at 100 µM in the test on Acinetobacter baumannii [5] and 12.5 µM in the test on Staphylococcus aureus [6].

With `CCCCCc1ccc(C(=O)NCCn2cc(CCCCCc3cn(CCCCC)c(N)n3)nn2)cc1.Cl`, the “fold change (FC)” value with Staphylococcus aureus [1] was found to be 0. Besides, in the test on Staphylococcus aureus [2], the EC50 is 45.1 µM. Further, the half-inhibitory concentration (IC50) in the test with Acinetobacter baumannii [3] (setting [7]) was determined as 31.4 µM; in the test on Staphylococcus aureus [4], 4.14 µM. Besides, the minimum inhibitory concentration (MIC) with Acinetobacter baumannii [5] worked out at 100 µM; in the test on Staphylococcus aureus [6], 12.5 µM.

Turning to `CCCCCc1ccc(C(=O)NCCn2cc(CCCCCc3cn(CCCC)c(N)n3)nn2)cc1.Cl`, the “fold change (FC)” value in the test on Staphylococcus aureus [1] was 0. Also, the half-inhibitory concentration (IC50) in the test with Acinetobacter baumannii [3] (setting [7]) was 53.8 µM; in the test with Staphylococcus aureus [4] it was 10.8 µM. The MIC in the test on Acinetobacter baumannii [5] amounted to 100 µM; in the test with Staphylococcus aureus [6], 25 µM.

With `C=CCn1cc(CCCCCc2cn(CCNC(=O)c3ccc(CCCCC)cc3)nn2)nc1N.Cl`, in the test with Staphylococcus aureus [1], the “fold change (FC)” value worked out at 2. Further, the IC50 entry was “ND(toxic)” in the test with Acinetobacter baumannii [3] and 13.2 µM in the test on Staphylococcus aureus [4]. In addition, the figures for the minimal inhibitory concentration (MIC) with Acinetobacter baumannii [5] and with Staphylococcus aureus [6] were 200 µM and 50 µM, respectively.

As for `CCCCCc1ccc(C(=O)NCCn2cc(CCCCCc3cn(CC(C)C)c(N)n3)nn2)cc1.Cl`, in the test on Staphylococcus aureus [1], the “fold change (FC)” value amounted to 4. Moreover, the concentration for half-maximal inhibition (IC50) in the test with Acinetobacter baumannii [3] (setting [7]) is 98.6 µM; with Staphylococcus aureus [4] it was 24 µM. For the same compound, the minimum inhibitory concentration (MIC) in the test on Acinetobacter baumannii [5] was 200 µM; in the test on Staphylococcus aureus [6], 50 µM.

`CCCCCc1ccc(C(=O)NCCn2cc(CCCCCc3cn(C(C)C)c(N)n3)nn2)cc1.Cl`: in the test with Staphylococcus aureus [1], the “fold change (FC)” value was found to be 0. Also, the 50% inhibitory concentration (IC50) entry with Acinetobacter baumannii [3] was “ND(toxic)”; in the test on Staphylococcus aureus [4], more than 100 µM. For the same compound, the minimum inhibitory concentration (MIC) in the test with Acinetobacter baumannii [5] is more than 200 µM; in the test on Staphylococcus aureus [6], 200 µM.

Regarding `CCCCCc1ccc(C(=O)NCCn2cc(CCCCCc3cn(C4CCCCC4)c(N)n3)nn2)cc1.Cl`, the “fold change (FC)” value with Staphylococcus aureus [1] turned out to be 2. Besides, the concentration for half-maximal inhibition (IC50) result in the test on Acinetobacter baumannii [3] was “ND(toxic)”; with Staphylococcus aureus [4], 18.7 µM. The MIC is 200 µM in the test on Acinetobacter baumannii [5] and 25 µM in the test with Staphylococcus aureus [6].

On to `CCCCCc1ccc(C(=O)NCCn2cc(CCCCCc3cn(C4CCCC4)c(N)n3)nn2)cc1.Cl`, for which the “fold change (FC)” value in the test on Staphylococcus aureus [1] came out at 2. For the same compound, in the test with Staphylococcus aureus [2], the half-maximal effective concentration (EC50) is 34.5 µM. For the same compound, the IC50 was determined as 33.7 µM with Acinetobacter baumannii [3] (setting [7]) and 9.01 µM in the test with Staphylococcus aureus [4]. In addition, the minimum inhibitory concentration (MIC) with Acinetobacter baumannii [5] is 100 µM; with Staphylococcus aureus [6] it was 25 µM.

`CCCCCc1ccc(C(=O)NCCn2cc(CCCCCc3cn(C4CC4)c(N)n3)nn2)cc1.Cl`: in the test on Staphylococcus aureus [1], the “fold change (FC)” value turned out to be 2. Further, the concentration for half-maximal inhibition (IC50) entry in the test with Acinetobacter baumannii [3] was “ND(toxic)”; in the test on Staphylococcus aureus [4], more than 100 µM. Further, the values for the minimal inhibitory concentration (MIC) in the test with Acinetobacter baumannii [5] and with Staphylococcus aureus [6] were more than 200 µM and 100 µM, respectively.

The EC50 is the midpoint of the concentration-response curve. Broadly, the IC50 is the concentration at which inhibition is half-maximal. One may read the MIC as the lowest concentration that inhibits growth of the organism.
